Reference: patent publication EP4635500A1, “THERAPEUTIC AGENT FOR BACTERIAL INFECTION” (Sumitomo Pharma Co., Ltd., priority 2022, dated 2024)
Converted amounts (≈) assume the structure as drawn. “And” between values parts separate entries of the source, which are not always exact repeats. Equal entries are not always repeated. Where two headings read alike, the source gives them in different places.

Test system: Enterobacterales
Assay: MIC, broth microdilution, CDC/FDA Antibiotic Resistance Isolate Bank (Example 7, Tables 8, 11, 12)
Format: cell-based

Structure (SMILES): C[C@@H](O)[C@H]1C(=O)N2C(C(=O)O)=C(S[C@@H]3CN[C@H](C(=O)N(C)C)C3)[C@H](C)[C@H]12 [MEPM, meropenem]
- MIC90: 32 µg/mL and >32 µg/mL
- MIC (Citrobacter freundii): 16 µg/mL (≈ 41.7 µM)
- MIC (Enterobacte (name cut at the end of the table), KUB No. 5629, AR Bank # 132, NMC (cut), read-out: MIC): 2 µg/mL (≈ 5.22 µM)
- MIC (Enterobacter cloacae, Enterobacter cloacae complex, KUB No. 5661, AR Bank# 164, NMC-A, read-out: MIC): 32 µg/mL (≈ 83.4 µM)
- MIC (Enterobacter cloacae, KUB No. 5529, AR Bank # 32, KPC-3, read-out: MIC): 0.12 µg/mL (≈ 0.313 µM)
- MIC (Enterobacter cloacae, KUB No. 5535, AR Bank # 38, NDM-1, read-out: MIC): > 32 µg/mL
- MIC (Enterobacter cloacae, KUB No. 5547, AR Bank # 50, KPC-4, read-out: MIC): 0.5 µg/mL (≈ 1.3 µM)
- MIC (Enterobacter cloacae, KUB No. 5550, AR Bank # 53, KPC-3, read-out: MIC): 2 µg/mL (≈ 5.22 µM)
- MIC (Enterobacter cloacae, KUB No. 5557, AR Bank # 60, no carbapenemase gene, read-out: MIC): ≤ 0.06 µg/mL
- MIC (Enterobacter cloacae, KUB No. 5562, AR Bank # 65, no carbapenemase gene, read-out: MIC): 0.25 µg/mL (≈ 0.652 µM)
- MIC (Enterobacter cloacae, KUB No. 5569, AR Bank # 72, no carbapenemase gene, read-out: MIC): 0.12 µg/mL (≈ 0.313 µM)
- MIC (Enterobacter cloacae, KUB No. 5570, AR Bank # 73, no carbapenemase gene, read-out: MIC): ≤ 0.06 µg/mL
- MIC (Enterobacter cloacae, KUB No. 5590, AR Bank # 93, KPC-6, read-out: MIC): 1 µg/mL (≈ 2.61 µM)
- MIC (Enterobacter cloacae, KUB No. 5633, AR Bank# 136, KPC-3, read-out: MIC): 8 µg/mL (≈ 20.9 µM)
- MIC (Enterobacter cloacae, KUB No. 5651, AR Bank# 154, VIM-1, read-out: MIC): 4 µg/mL (≈ 10.4 µM)
- MIC (Enterobacter cloacae, KUB No. 5660, AR Bank# 163, KPC-2, read-out: MIC): 4 µg/mL (≈ 10.4 µM)
- MIC (Enterobacter cloacae, KUB No. 5761, AR Bank# 365, KPC-2, read-out: MIC): 2 µg/mL (≈ 5.22 µM)
- MIC (Enterobacter cloacae, KUB No. 5762, AR Bank# 366, KPC-2, read-out: MIC): 1 µg/mL (≈ 2.61 µM)
- MIC (Enterobacter cloacae, KUB No. 5763, AR Bank# 367, no carbapenemase genes, read-out: MIC): 0.5 µg/mL (≈ 1.3 µM)
- MIC (Enterobacter cloacae, KUB No. 5778, AR Bank# 432, no carbapenemase genes, read-out: MIC): 0.12 µg/mL (≈ 0.313 µM)
- MIC (Enterobacter cloacae, KUB No. 5792, AR Bank# 448, NDM-1, read-out: MIC): 16 µg/mL (≈ 41.7 µM)
- MIC (Enterobacter cloacae, KUB No. 5807, AR Bank# 501, VIM-1, read-out: MIC): 0.5 µg/mL (≈ 1.3 µM)
- MIC (Enterobacter cloacae, KUB No. 5808, AR Bank# 502, IMP-8, read-out: MIC): 4 µg/mL (≈ 10.4 µM)
- MIC (Escherichia coli, KUB No. 5558, AR Bank # 61, KPC-3 (line continued in Table 8-2), read-out: MIC): 1 µg/mL (≈ 2.61 µM)
- MIC (Escherichia coli, KUB No. 5611, AR Bank # 114, KPC-3, read-out: MIC): 2 µg/mL (≈ 5.22 µM)
- MIC (Escherichia coli, KUB No. 5634, AR Bank# 137, NDM-6, read-out: MIC): 32 µg/mL (≈ 83.4 µM)
- MIC (Escherichia coli, KUB No. 5646, AR Bank# 149, NDM-7, read-out: MIC): 8 µg/mL (≈ 20.9 µM)
- MIC (Escherichia coli, KUB No. 5647, AR Bank# 150, NDM-5, read-out: MIC): > 32 µg/mL
- MIC (Escherichia coli, KUB No. 5648, AR Bank# 151, NDM-5, read-out: MIC): 8 µg/mL (≈ 20.9 µM)
- MIC (Escherichia coli, KUB No. 5659, AR Bank# 162, NDM-7, read-out: MIC): 32 µg/mL (≈ 83.4 µM)
- MIC (Escherichia coli, KUB No. 5764, AR Bank# 368, no carbapenemase genes, read-out: MIC): ≤ 0.06 µg/mL
- MIC (Escherichia coli, KUB No. 5765, AR Bank# 369, no carbapenemase genes, read-out: MIC): ≤ 0.06 µg/mL
- MIC (Escherichia coli, KUB No. 5766, AR Bank# 370, no carbapenemase genes, read-out: MIC): ≤ 0.06 µg/mL
- MIC (Escherichia coli, KUB No. 5767, AR Bank# 371, no carbapenemase genes, read-out: MIC): ≤ 0.06 µg/mL
- MIC (Escherichia coli, KUB No. 5768, AR Bank# 372, no carbapenemase genes, read-out: MIC): ≤ 0.06 µg/mL
- MIC (Escherichia coli, KUB No. 5769, AR Bank# 373, no carbapenemase genes, read-out: MIC): ≤ 0.06 µg/mL
- MIC (Escherichia coli, KUB No. 5770, AR Bank# 374, no carbapenemase genes, read-out: MIC): ≤ 0.06 µg/mL
- MIC (Escherichia coli, KUB No. 5774, AR Bank# 378, no carbapenemase genes, read-out: MIC): ≤ 0.06 µg/mL
- MIC (Escherichia coli, KUB No. 5779, AR Bank# 433, no carbapenemase genes, read-out: MIC): ≤ 0.06 µg/mL
- MIC (Escherichia coli, KUB No. 5780, AR Bank# 434, no carbapenemase genes, read-out: MIC): ≤ 0.06 µg/mL
- MIC (Escherichia coli, KUB No. 5781, AR Bank# 435, NDM-1, read-out: MIC): 32 µg/mL (≈ 83.4 µM)
- MIC (Escherichia coli, KUB No. 5782, AR Bank# 436, no carbapenemase genes, read-out: MIC): ≤ 0.06 µg/mL
- MIC (Escherichia coli, KUB No. 5783, AR Bank# 437, no carbapenemase genes, read-out: MIC): ≤ 0.06 µg/mL
- MIC (Escherichia coli, KUB No. 5794, AR Bank# 450, no carbapenemase genes, read-out: MIC): 16 µg/mL (≈ 41.7 µM)
- MIC (Escherichia coli, KUB No. 5796, AR Bank# 452, NDM-5, read-out: MIC): 2 µg/mL (≈ 5.22 µM)
- MIC (Klebsiella aerogenes, Enterobacter aerogenes, KUB No. 5559, AR Bank # 62, no carbapenemase gene, read-out: MIC): 0.12 µg/mL (≈ 0.313 µM)
- MIC (Klebsiella aerogenes, Enterobacter aerogenes, KUB No. 5571, AR Bank # 74, OXA-48, read-out: MIC): 0.5 µg/mL (≈ 1.3 µM)
- MIC (Klebsiella aerogenes, Enterobacter aerogenes, KUB No. 5658, AR Bank# 161, IMP-4, read-out: MIC): 1 µg/mL (≈ 2.61 µM)
- MIC (Klebsiella aerogenes, Enterobacter aerogenes, KUB No. 5777, AR Bank# 431, no carbapenemase genes, read-out: MIC): ≤ 0.06 µg/mL
- MIC (Klebsiella ornithinolytica): 0.25 µg/mL (≈ 0.652 µM)
- MIC (Klebsiella oxytoca, KUB No. 5568, AR Bank # 71, no carbapenemase gene, read-out: MIC): 8 µg/mL (≈ 20.9 µM)
- MIC (Klebsiella oxytoca, KUB No. 5644, AR Bank# 147, KPC-3, read-out: MIC): 0.25 µg/mL (≈ 0.652 µM)
- MIC (Klebsiella oxytoca, KUB No. 5771, AR Bank# 375, no carbapenemase genes, read-out: MIC): ≤ 0.06 µg/mL
- MIC (Klebsiella oxytoca, KUB No. 5776, AR Bank# 380, no carbapenemase genes, read-out: MIC): 2 µg/mL (≈ 5.22 µM)
- MIC (Klebsiella ozaenae, KUB No. 5548, AR Bank # 51, OXA-181, read-out: MIC): 1 µg/mL (≈ 2.61 µM)
- MIC (Klebsiella ozaenae, KUB No. 5593, AR Bank # 96, KPC-3, read-out: MIC): 32 µg/mL (≈ 83.4 µM)
- MIC (Klebsiella pnemnonice, KUB No. 5784, AR Bank# 438, KPC-3, read-out: MIC): > 32 µg/mL
- MIC (Klebsiella pneumoniae, KUB No. 5531, AR Bank # 34, IMP-4, read-out: MIC): 0.25 µg/mL (≈ 0.652 µM)
- MIC (Klebsiella pneumoniae, KUB No. 5536, AR Bank # 39, OXA-181, read-out: MIC): 1 µg/mL (≈ 2.61 µM)
- MIC (Klebsiella pneumoniae, KUB No. 5537, AR Bank # 40, VIM-27, read-out: MIC): > 32 µg/mL
- MIC (Klebsiella pneumoniae, KUB No. 5538, AR Bank # 41, NDM-1, read-out: MIC): 8 µg/mL (≈ 20.9 µM)
- MIC (Klebsiella pneumoniae, KUB No. 5540, AR Bank # 43, no carbapenemase gene, read-out: MIC): 0.5 µg/mL (≈ 1.3 µM)
- MIC (Klebsiella pneumoniae, KUB No. 5541, AR Bank # 44, no carbapenemase gene, read-out: MIC): 2 µg/mL (≈ 5.22 µM)
- MIC (Klebsiella pneumoniae, KUB No. 5543, AR Bank # 46, VIM-27, read-out: MIC): 32 µg/mL (≈ 83.4 µM)
- MIC (Klebsiella pneumoniae, KUB No. 5544, AR Bank # 47, no carbapenemase gene, read-out: MIC): 4 µg/mL (≈ 10.4 µM)
- MIC (Klebsiella pneumoniae, KUB No. 5546, AR Bank # 49, NDM-1, read-out: MIC): 32 µg/mL (≈ 83.4 µM)
- MIC (Klebsiella pneumoniae, KUB No. 5563, AR Bank # 66, OXA-232, read-out: MIC): 8 µg/mL (≈ 20.9 µM)
- MIC (Klebsiella pneumoniae, KUB No. 5565, AR Bank # 68, OXA-232, NDM-1, read-out: MIC): > 32 µg/mL
- MIC (Klebsiella pneumoniae, KUB No. 5573, AR Bank # 76, VIM-1, read-out: MIC): 2 µg/mL (≈ 5.22 µM)
- MIC (Klebsiella pneumoniae, KUB No. 5576, AR Bank # 79, no carbapenemase gene, read-out: MIC): 4 µg/mL (≈ 10.4 µM)
- MIC (Klebsiella pneumoniae, KUB No. 5577, AR Bank # 80, IMP-4, read-out: MIC): 4 µg/mL (≈ 10.4 µM)
- MIC (Klebsiella pneumoniae, KUB No. 5584, AR Bank # 87, no carbapenemase gene, read-out: MIC): ≤ 0.06 µg/mL
- MIC (Klebsiella pneumoniae, KUB No. 5594, AR Bank # 97, KPC-3, read-out: MIC): 32 µg/mL (≈ 83.4 µM)
- MIC (Klebsiella pneumoniae, KUB No. 5595, AR Bank # 98, KPC-2, read-out: MIC): 8 µg/mL (≈ 20.9 µM)
- MIC (Klebsiella pneumoniae, KUB No. 5603, AR Bank # 106, NDM-1, read-out: MIC): > 32 µg/mL
- MIC (Klebsiella pneumoniae, KUB No. 5604, AR Bank # 107, no carbapenemase gene, read-out: MIC): 16 µg/mL (≈ 41.7 µM)
- MIC (Klebsiella pneumoniae, KUB No. 5606, AR Bank # 109, no carbapenemase gene, read-out: MIC): 8 µg/mL (≈ 20.9 µM)
- MIC (Klebsiella pneumoniae, KUB No. 5609, AR Bank # 112, KPC-3, read-out: MIC): 4 µg/mL (≈ 10.4 µM)
- MIC (Klebsiella pneumoniae, KUB No. 5610, AR Bank # 113, KPC-3, read-out: MIC): > 32 µg/mL
- MIC (Klebsiella pneumoniae, KUB No. 5612, AR Bank # 115, KPC-3, read-out: MIC): 8 µg/mL (≈ 20.9 µM)
- MIC (Klebsiella pneumoniae, KUB No. 5614, AR Bank # 117, KPC-3, read-out: MIC): 16 µg/mL (≈ 41.7 µM)
- MIC (Klebsiella pneumoniae, KUB No. 5617, AR Bank # 120, KPC-2, read-out: MIC): 16 µg/mL (≈ 41.7 µM)
- MIC (Klebsiella pneumoniae, KUB No. 5622, AR Bank # 125, KPC-3, read-out: MIC): 16 µg/mL (≈ 41.7 µM)
- MIC (Klebsiella pneumoniae, KUB No. 5623, AR Bank # 126, KPC-2, read-out: MIC): 4 µg/mL (≈ 10.4 µM)
- MIC (Klebsiella pneumoniae, KUB No. 5626, AR Bank # 129, KPC-3, read-out: MIC): 4 µg/mL (≈ 10.4 µM)
- MIC (Klebsiella pneumoniae, KUB No. 5632, AR Bank# 135, VIM-1, read-out: MIC): 0.5 µg/mL (≈ 1.3 µM)
